Results from ChEMBL document CHEMBL1138535, “Comparison of beta-lactam and macrolide combination therapy versus fluoroquinolone monotherapy in hospitalized Veterans Affairs patients with community-acquired pneumonia” (2007).

Tests used:
Format in all cases: functional
Homo sapiens [1] = assay: Protection against community-acquired pneumonia in patient with pneumonia severity index-3 assessed as mortality at 500 mg administered once daily for 14 days
Homo sapiens [2] = assay: Protection against community-acquired pneumonia in patient with pneumonia severity index-5 assessed as mortality at 500 mg administered once daily for 14 days
Homo sapiens [3] = assay: Protection against community-acquired pneumonia in patient with pneumonia severity index-4 assessed as mortality at 500 mg administered once daily for 30 days
Homo sapiens [4] = assay: Protection against community-acquired pneumonia in patient with pneumonia severity index-2 assessed as mortality at 500 mg administered once daily for 30 days
Homo sapiens [5] = assay: Protection against community-acquired pneumonia in patient with pneumonia severity index-4 assessed as mortality at 500 mg administered once daily for 14 days
Homo sapiens [6] = assay: Protection against community-acquired pneumonia in patient with pneumonia severity index-5 assessed as mortality at 500 mg administered once daily for 30 days
Homo sapiens [7] = assay: Protection against community-acquired pneumonia in patient with pneumonia severity index-2 assessed as mortality at 500 mg administered once daily for 14 days
Homo sapiens [8] = assay: Protection against community-acquired pneumonia in patient with pneumonia severity index-3 assessed as mortality at 500 mg administered once daily for 30 days

C[C@H]1COc2c(N3CCN(C)CC3)c(F)cc3c(=O)c(C(=O)O)cn1c23.C[C@H]1COc2c(N3CCN(C)CC3)c(F)cc3c(=O)c(C(=O)O)cn1c23.O [LEVOFLOXACIN] gave an Activity (Homo sapiens [1]) of 2.1%, an Activity (Homo sapiens [2]) of 26.8% and an Activity (Homo sapiens [3]) of 5%. It also gave an Activity (Homo sapiens [4]) of 0%, an Activity (Homo sapiens [5]) of 4.2% and an Activity (Homo sapiens [6]) of 36.6%. For the same molecule, the Activity (Homo sapiens [7]) was 0% and the Activity (Homo sapiens [8]) was 6.3%.
